# Measured values reported in paper PMC1660542, “Structure-based discovery of inhibitors of the YycG histidine kinase: New chemical leads to combat Staphylococcus epidermidis infections” (BMC Microbiology, 2006).
# “Also recorded” adds a separate entry of the source. Read-outs that look alike come from different tables or passages of the source.
# Key:
# [1] = Cytotoxicity on Vero cell (MTT, Cell Proliferation Kit I); assay type: cell-based, African Green-monkey; settings: African green monkey, highest concentration tested 200 μM
# Description: (§1) Cytotoxicity of the antibacterial compounds on cultured Vero cell was measured by using the Cell Proliferation Kit I (MTT) (Roche, Indianapolis, USA) according to the manufacturer's protocol. Addition of DMSO (1%) in the medium produced a slight cytotoxicity on Vero cell, which could easily be corrected for. Each assay was performed in quadruplicate and repeated three times. The results were converted to percentage of the control (cells only treated with 1% DMSO) and CC50 (concentrations that produce a 50% cytotoxicity effect on Vero cell) was calculated by the Origin v7.0 software (OriginLab, Northampton, USA). Hemolytic activities of the compounds were determined by using healthy human erythrocytes. The erythrocytes were washed three times in sterile saline and resuspended to 5% prior to the assay. […] Cells without compound treatment and cells with 1% Triton-100 treatment were used as 0% and 100% hemolysis controls, respectively. The cell suspensions were incubated for 1 hour at 37°C and centrifuged at 1000×g for 10 min. Volumes of 100 μl supernatants were transferred to another sterile plate and hemoglobin release from the cells was determined at 570 nm. […] The hemolysis assays were repeated twice.
# [2] = system: S. epidermidis RP62A mature biofilm cells; assay: Killing biofilm cells of S. epidermidis (CFU count); assay type: cell-based, Staphylococcus epidermidis
# Description: An overnight culture of S. epidermidis strain RP62A was diluted 1:100 in TSB containing 0.25% glucose, then 1 ml bacterial suspension was inoculated into the wells of sterile 12-well polystyrene microtiter plates (Falcon) incubated at 37°C for 24 h. The plates with mature biofilm were washed gently four times with sterile PBS before adding fresh TSB containing the various compounds at their MBC values, and incubated at 37°C for 24 h. The plates were washed again four times with sterile PBS, then the biofilm cells were scraped from the plate and resuspended in 1 ml PBS, and violently vortexed to disintegrate clumps of cells. Next, the suspension was diluted gradually with sterile PBS and subcultured onto substance-free Mueller-Hinton agar plates, incubated at 37°C for 24 h, and the colonies were counted. The fresh medium containing vancomycin at the MBC value and substance-free fresh medium served as the controls. The experiment was repeated three times.
# [3] = system: S. epidermidis RP62A; assay: MIC assay (broth dilution in tubes, CLSI); assay type: cell-based; settings: Staphylococcus epidermidis
# From the text: (§2) Staphylococcus epidermidis ATCC12228 and RP62A strains were purchased from the American Type Culture Collection (ATCC, Manassas, USA). Staphylococcus aureus ATCC29213, Escherichia coli ATCC25922 and Pseudomonas aeruginosa ATCC27853 were kindly provided by Dr. Bijie Hu at Zhongshan Hospital (Shanghai, China). S. epidermidis strains se527, se886, se847, seG203, Streptococcus pyogenes strain 144, and Streptococcus mutans strain 128 were all clinical isolates from Zhongshan Hospital and Huashan Hospital (Shanghai, China). If not stated otherwise, S. epidermidis and S. aureus strains were grown at 37°C in tryptic soy broth (TSB, Oxoid) containing 0.25% glucose, E. coli and P. aeruginosa strains were grown at 37°C in Luria-Bertani (LB, Oxoid).
# (§3) MIC assays for the antibacterial activities of the compounds were performed according to the broth micro-dilution (in tubes) method of the Clinical and Laboratory Standards Institute (CLSI) of America. The Minimal Bactericidal Concentration (MBC) was obtained by subculturing 100 μl from each negative (no visible bacterial growth) tube from the MIC assay, onto substance-free Mueller-Hinton agar plates. The plates were incubated at 37°C for 24 hours, and the MBC was defined as the lowest concentration of substance which produced subcultures growing no more than five colonies on each plate.
# [4] = biological target: T1, YycG' protein (Staphylococcus epidermidis, UniProt Q8CU87); assay: Inhibition of YycG' ATPase activity / autophosphorylation (Kinase-Glo Luminescent Kinase Assay); assay type: biochemical; settings: for inhibition at 50 µM: read-out: Inhibition of YycG' phosphorylation (decrease of ATPase activity)
# T1 construct: of YycG (370aa to 610aa) was amplified by PCR; His-tag (pET28a) (N); made in house; host or cells: E. coli BL21 (pET28a, pETYycG')
# Description: The inhibitory activities of the compounds for the ATPase activity of the YycG' protein was measured using the Kinase-Glo™ Luminescent Kinase Assay (Promega, Madison, USA). Briefly, 4 μg YycG' protein was pre-incubated with a series of dilution of compounds in the reaction buffer (40 mM Tris [pH 7.5], 20 mM MgCl2, and 0.1 mg/ml BSA), at 25°C for 30 min. Then 3 μM ATP was added for another incubation of 30 min at 25°C, and Kinase-Glo™ Reagent was added to detect the rest amount of ATP, as recorded from luminescence measurements (RLU). In parallel, theYycG' protein with no addition of compounds was used as the control. The rate of inhibiting protein phosphorylation (Rp) by the compounds was calculated from equation 1:
# Rp=RLU(YycG^′+compound+ATP+Reagent)−RLU(YycG^′+ATP+Reagent)/RLU(ATP+Reagent)−RLU(YycG^′+ATP+Reagent)×100% (1) MathType@MTEF@5@5@+=feaafiart1ev1aaatCvAUfKttLearuWrP9MDH5MBPbIqV92AaeXatLxBI9gBaebbnrfifHhDYfgasaacH8akY=wiFfYdH8Gipec8Eeeu0xXdbba9frFj0=OqFfea0dXdd9vqai=hGuQ8kuc9pgc9s8qqaq=dirpe0xb9q8qiLsFr0=vr0=vr0dc8meaabaqaciaacaGaaeqabaqabeGadaaakeaacqqGsbGudaWgaaWcbaGaeeiCaahabeaakiabg2da9maalaaabaGaeeOuaiLaeeitaWKaeeyvauLaeiikaGIaeeywaKLaeeyEaKNaee4yamMafe4raCKbauaacqGHRaWkcqqGJbWycqqGVbWBcqqGTbqBcqqGWbaCcqqGVbWBcqqG1bqDcqqGUbGBcqqGKbazcqGHRaWkcqqGbbqqcqqGubavcqqGqbaucqGHRaWkcqqGsbGucqqGLbqzcqqGHbqycqqGNbWzcqqGLbqzcqqGUbGBcqqG0baDcqGGPaqkcqGHsislcqqGsbGucqqGmbatcqqGvbqvcqGGOaakcqqGzbqwcqqG5bqEcqqGJbWycuqGhbWrgaqbaiabgUcaRiabbgeabjabbsfaujabbcfaqjabgUcaRiabbkfasjabbwgaLjabbggaHjabbEgaNjabbwgaLjabb6gaUjabbsha0jabcMcaPaqaaiabbkfasjabbYeamjabbwfavjabcIcaOiabbgeabjabbsfaujabbcfaqjabgUcaRiabbkfasjabbwgaLjabbggaHjabbEgaNjabbwgaLjabb6gaUjabbsha0jabcMcaPiabgkHiTiabbkfasjabbYeamjabbwfavjabcIcaOiabbMfazjabbMha5jabbogaJjqbbEeahzaafaGaey4kaSIaeeyqaeKaeeivaqLaeeiuaaLaey4kaSIaeeOuaiLaeeyzauMaeeyyaeMaee4zaCMaeeyzauMaeeOBa4MaeeiDaqNaeiykaKcaaiabgEna0kabigdaXiabicdaWiabicdaWiabcwcaLiaaxMaacaWLjaWaaeWaaeaacqaIXaqmaiaawIcacaGLPaaaaaa@A46C@
# IC50 (the concentration of inhibition of 50% YycG' protein autophosphorylation) was obtained by using the Origin v7.0 software (OriginLab, Northampton, USA).
# [5] = system: S. mutans 128; assay: MIC assay (broth dilution in tubes, CLSI); assay type: cell-based, Streptococcus mutans; settings: for MIC: Streptococcus mutans, S. mutans 128, read-out: Minimal inhibitory concentration (MIC)
# From the text: as §2, §3
# [6] = system: S. aureus ATCC29213; assay: MIC assay (broth dilution in tubes, CLSI); assay type: cell-based, Staphylococcus aureus; settings: for MIC: Staphylococcus aureus
# From the text: as §2, §3
# [7] = system: S. epidermidis ATCC12228; assay: MIC assay (broth dilution in tubes, CLSI); assay type: cell-based, Staphylococcus epidermidis; settings: Staphylococcus epidermidis
# From the text: as §2, §3
# [8] = system: S. pyogenes 144; assay: MIC assay (broth dilution in tubes, CLSI); assay type: cell-based, Streptococcus pyogenes; settings: for MIC: Streptococcus pyogenes, S. pyogenes 144, read-out: Minimal inhibitory concentration (MIC)
# From the text: as §2, §3
# [9] = system: S. epidermidis ATCC12228; assay: Minimal bactericidal concentration (MBC) assay; assay type: cell-based; settings: Staphylococcus epidermidis
# Description: as §3
# [10] = system: S. epidermidis RP62A; assay: Minimal bactericidal concentration (MBC) assay; assay type: cell-based; settings: Staphylococcus epidermidis
# Description: as §3
# [11] = Erythrocyte hemolysis assay; assay type: cell-based, human; settings: human, 1 hour, 37°C;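 further: compounds tested at their MIC and at 4× MIC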
# Description: as §1
# [12] = system: SrrB'; assay: Inhibition of SrrB' autophosphorylation (Kinase-Glo); assay type: biochemical, S. epidermidis; settings: compound 50 μM, 4 μg protein, 3 μM ATP
# [13] = biological target: T1, YycG' protein; assay: Compound-YycG' protein binding assay (SPR, Biacore 3000); settings: SPR
# From the text: The YycG' fragment containing the cytoplasmic signal domains (the HATPase_c and HisKA domain, see Figure 1A) of YycG (370aa to 610aa) was amplified by PCR (with the chromosomal DNA of S. epidermidis ATCC12228 as the template, and (5' […] 3') and (5' […] 3') as the primers. Subsequently, the fragment was digested with BamHI and XholI (TAKARA, Japan) and ligated into the corresponding sites of pET28a (Promega, Madison, USA) to obtain pETYycG'. The expressed YycG' protein was purified with the ProBond™ Purification System (Invitrogen, California, USA), according to the manufacturer's protocol.
# The in vitro binding affinities of the inhibitor compounds to the YycG' protein was determined using surface plasmon resonance (SPR) biosensor technology on the dual flow cell Biacore 3000 instrument (Biacore AB, Uppsala, Sweden) with a similar method as described in our previous study. Immobilization of the YycG' protein to the hydrophilic carboxymethylated dextran matrix of the sensor chip CM5 (Biacore) was carried out by the standard primary amine coupling reaction. […] The equilibrium constants (KD) evaluating the protein-ligand binding affinity were determined by the steady state or the kinetic state affinity fitting model encoded in the Biacore analysis software.
# [14] = S. epidermidis RP62A (biofilm-forming strain), read-out: Minimal inhibitory concentration (MIC)
# [15] = 4 μg YycG' protein, 3 μM ATP, read-out: IC50 for YycG'
# [16] = compound 50 μM, 4 μg protein, 3 μM ATP
# [17] = S. aureus ATCC29213, read-out: Minimal inhibitory concentration (MIC)
# [18] = ATCC12228, Table 2, as tested on S. epidermidis ATCC 12228, read-out: MICs
# [19] = S. epidermidis ATCC12228 (non-biofilm-forming strain), read-out: Minimal inhibitory concentration (MIC)
# [20] = S. epidermidis RP62A, read-out: Minimal bactericidal concentration (MBC)
# [21] = erythrocytes (5% suspension), at 4 × MIC (number in parenthesis)
# [22] = erythrocytes (5% suspension), at MIC for S. epidermidis ATCC12228
# T1 sequence (Q8CU87 370-610): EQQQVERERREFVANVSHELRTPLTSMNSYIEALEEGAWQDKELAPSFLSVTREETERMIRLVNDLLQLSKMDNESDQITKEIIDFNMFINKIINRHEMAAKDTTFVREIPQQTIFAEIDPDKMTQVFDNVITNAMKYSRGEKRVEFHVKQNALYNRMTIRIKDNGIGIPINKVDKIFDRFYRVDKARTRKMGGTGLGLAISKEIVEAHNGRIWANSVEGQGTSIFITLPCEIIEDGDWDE
Structure (SMILES),CC50 ([1]; Vero cells),"MIC [3, 14]","IC50 [4, 15]","inhibition at 50 µM [4, 16]",MIC [5],Inhibitory effect against S. aureus [6],"MIC [6, 17]","MIC [7, 18]","MIC [7, 19]",Inhibitory effect against Streptococcus pyogenes [8],MIC [8],MBC [9],"MBC [10, 20]","hemolysis at 1 h [11, 21]","hemolysis at 1 h [11, 22]",Inhibition of SrrB' phosphorylation [12],further results
CCOC(=O)C1=C(c2ccccc2)N=c2s/c(=C/c3ccc(-c4cccc(C(O)O)c4)o3)c(=O)n2C1c1ccc2c(c1)OCO2 (stereo not shown) [Compound 5],> 200 µM,6.25 µM,14 µM,73%,6.25 µM,effective,6.25 µM,6.25 µM,6.25 µM,effective,1.56 µM,25 µM,25 µM,0.3%,0.1%,,"Reduction of the CFU of the biofilm cells ([2]; 24-hour-old biofilm, at MBC value, relative to untreated control): more than 100 fold; Inhibitory effect against Streptococcus mutans [5]: effective"
Cc1ccc(C(O)O)cc1-c1ccc(/C=N/NC(=O)c2cc3c(ccc4ccccc43)o2)o1 [Compound 4],> 200 µM,12.5 µM,13.5 µM,76%,> 200 µM,,> 200 µM,12.5 µM,12.5 µM,only active against S. pyogenes,50 µM,50 µM,100 µM,0.4%,0.1%,3%,
CCOc1cccc(N2C(=O)/C(=C\c3ccc(OCc4ccc(F)cc4)c(Br)c3)C(=O)NC2=S)c1 [Compound 6],,,,,,,,,,,,,,,,,"CC50 [1]: > 200 µM; MIC ([3]; RP62A, read-out: Minimal inhibitory concentration (MIC)): 100 µM; IC50 [4]: > 200 µM; inhibition at 50 µM [4]: ~7%; MIC ([6]; ATCC29213, read-out: Minimal inhibitory concentration (MIC)): > 200 µM; MIC ([7]; ATCC12228, read-out: MICs): 100 µM; MIC ([7]; ATCC12228, read-out: Minimal inhibitory concentration (MIC)): 100 µM; Binding to the YycG' protein [13]: only bound very poorly; hemolysis at 1 h ([11]; at 4 × MIC (number in parenthesis)): 2.3%; hemolysis at 1 h ([11]; at MIC for S. epidermidis ATCC12228): 1.1%"
"CN[C@H](CC(C)C)C(=O)N[C@H]1C(=O)N[C@@H](CC(N)=O)C(=O)N[C@H]2C(=O)N[C@H]3C(=O)N[C@H](C(=O)N[C@H](C(=O)O)c4cc(O)cc(O)c4-c4cc3ccc4O)[C@H](O)c3ccc(c(Cl)c3)Oc3cc2cc(c3O[C@@H]2O[C@H](CO)[C@@H](O)[C@H](O)[C@H]2O[C@H]2C[C@](C)(N)[C@H](O)[C@H](C)O2)Oc2ccc(cc2Cl)[C@H]1O [Vancomycin, reference compound]",,,,,,,,,,,,,,,,,Killing of biofilm cells ([2]; concentration increased up to 128 μg/ml): no increased killing; also recorded: almost without effect; MIC ([3]; RP62A): 1 µg/mL; MBC ([10]; RP62A): 4 µg/mL
O=C(NNC(=O)c1c(Br)c(Br)c(Br)c(Br)c1C(O)O)c1cc(Cl)ccc1O [Compound 1],> 200 µM,50 µM,48 µM,52%,> 200 µM,inhibited the growth,50 µM,50 µM,50 µM,inhibited the growth,200 µM,200 µM,200 µM,< 0.1%,< 0.1%,3%,
